Patent US20230330251A1, “METHODS FOR TREATING CANCERS WITH ANTIBODY DRUG CONJUGATES (ADC) THAT BIND TO 191P4D12 PROTEINS” (AGENSYS, INC., priority 2020, published 2023)
Non-standard residues stand in square brackets, D forms with d. Residues, ends and D or L forms follow the SMILES beside them. *: point of attachment. Dolaproine = CO[C@@H]([C@@H]1CCCN1)[C@@H](C)C(=O)O; Dil = CC[C@H](C)[C@H](NC)[C@@H](CC(=O)O)OC; X1 = C[C@@H](N*)[C@@H](O)c1ccccc1; NMeV = CN[C@H](C(=O)O)C(C)C

What was measured:
subjects = settings: cited from earlier work
PD-1 = PD-1 (Homo sapiens, UniProt Q15116); settings: cited from earlier work
[1] = system: locally advanced or metastatic urothelial cancer; settings: second line, KEYNOTE-045; cited from earlier work
[2] = Phase 1 study of EV: pharmacokinetics; format: in vivo, human; settings: EV dosing on Days 1, 8 and 15 of every 28-day cycle
Description: Based on pharmacokinetic data from the phase 1 study, the half-life of EV is ˜1-2 days. […] Minimal (<50%) intra-cycle accumulation of MMAE was observed. It is anticipated that the dosing schedule in the study will maintain ADC exposures over each 28-day cycle, contributing to a favorable balance of activity and safety, as observed in the phase 1 trial.

urothelial cancer = settings: second line treatment; best supportive care 4.6 months; cited from earlier work
[3] = system: acute myeloid leukemia (AML) at relapse; settings: administered alone; cited from earlier work

PD-1, sequence (Q15116 25-288): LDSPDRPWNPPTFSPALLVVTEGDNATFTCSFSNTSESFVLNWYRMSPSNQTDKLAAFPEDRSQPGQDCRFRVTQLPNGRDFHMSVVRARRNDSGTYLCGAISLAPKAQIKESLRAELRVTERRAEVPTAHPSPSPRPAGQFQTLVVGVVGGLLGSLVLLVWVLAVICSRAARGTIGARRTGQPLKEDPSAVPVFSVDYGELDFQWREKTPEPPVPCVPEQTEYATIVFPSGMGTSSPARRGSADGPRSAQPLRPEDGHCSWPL

Compound: CC(=O)O[C@@]12CO[C@@H]1C[C@H](O)[C@@]1(C)C(=O)[C@H](O)C3=C(C)[C@@H](OC(=O)[C@H](O)[C@@H](NC(=O)OC(C)(C)C)c4ccccc4)C[C@@](O)([C@@H](OC(=O)c4ccccc4)[C@H]21)C3(C)C [Docetaxel, docetaxel]
- fluid retention following docetaxel therapy (subjects; in vivo): Severe fluid retention has been reported

Compound: BGB-A317: anti-PD-1 monoclonal antibody in which the ability to bind Fc gamma receptor I is engineered out
- binding to PD-1 (PD-1): high affinity

Compound: pembrolizumab: humanized monoclonal IgG4 anti-PD-1 antibody
- Median OS [1]: 10.3 months

Compound: CC[C@H](C)[C@@H]([C@@H](CC(=O)N1CCC[C@H]1[C@H](OC)[C@@H](C)C(=O)N[C@H](C)[C@@H](O)c1ccccc1)OC)N(C)C(=O)[C@@H](NC(=O)[C@@H](NC)C(C)C)C(C)C [MMAE, monomethyl auristatin E, reference compound] (H-[NMeV]V[Dil][Dolaproine]-X1)
- intra-cycle accumulation of MMAE [2]: < 50%

Compound: CC[C@]12C=CCN3CC[C@@]4(c5cc([C@@]6(C(=O)OC)C[C@@H]7C[C@@H](C(C)(F)F)CN(Cc8c6[nH]c6ccccc86)C7)c(OC)cc5N(C)[C@H]4[C@@](O)(C(=O)OC)[C@@H]1OC(C)=O)[C@@H]32 [Vinflunine, vinflunine]
- Median OS (urothelial cancer): 6.9 months
- Cases of Posterior Reversible Encephalopathy Syndrome (PRES) (subjects; after administration of vinflunine): have been observed

Compound: CT-011: anti-PD-1 antibody, a humanized antibody
- response in acute myeloid leukemia (AML) at relapse [3]: failed to show response
